{"source": "patent US10781426B2", "about": "(priority 2012, dated 2020)", "key": {"HCoV EMC": {"tested_on": "HCoV EMC", "assay_type": "cell-based"}, "DPP4": {"tested_on": "DPP4", "assay_type": "cell-based"}}, "data": [{"smiles": "Nc1ncnc2c1ncn2[C@@H]1O[C@H](CO)[C@@H](O)[C@H]1O", "note": "[adenosine]", "values": [{"measurement": "cells' susceptibility to virus infection", "setting": "HCoV EMC", "value": "reduces the cells' susceptibility to virus infection"}, {"measurement": "virus replication", "setting": "HCoV EMC", "value": "reduces virus replication"}, {"measurement": "DPP4 expression", "setting": "DPP4", "value": "down regulates"}]}]}
